How the values were obtained:
[1] = test system: Hamster flank organ hair; assay: Inhibition of hair growth: hamster flank organ hair mass after topical application; type: in vivo, male intact Golden Syrian hamsters; settings: three weeks; for Percent Inhibition (of hair mass vs vehicle-treated organ) / Hamster Flank Organ Hair Mass, Treated (mean): once a day, five days a week
Text: Acivicin (Sigma Chemical Co., St. Louis) was mixed with separate portions of the foregoing vehicle to provide specimens containing 1,2, and 6% by weight respectively of the inhibitor and the pH was adjusted to pH 7.5 with sodium hydroxide.
Four groups (eight animals in each group) of male intact Golden Syrian hamsters were provided. These animals were considered acceptable models for human beard hair growth in that they display oval shaped flank organs, one on each side, each about 8 mm. in major diameter, which grow thick black and coarse hair similar to human beard hair. These organs produce hair in response to androgens in the hamster. The flank organs of each hamster were depilated by applying a thioglycolate- based chemical depilatory (Surgex), and to one organ of each animal was applied 10-25 mg. of vehicle alone once a day, while to the other organ of each animal was applied an equal amount of vehicle containing inhibitor. After three weeks of such applications (five days a week), the flank organs were shaved and the amount of recovered hair (hair mass) from each was weighed. The extent of reduction in hair growth by the inhibitor was expressed as the percent decrease in hair mass on the organ treated with inhibitor as compared to the organ treated with vehicle alone. As a control, one group of eight animals had both flank organs of each animal treated with vehicle alone.
A composition was prepared containing 5% by weight of bromsulphalein disodium in the vehicle described in Example I above, and applied to hamster flank organs under the same conditions as described in Example 1.
The anthglutin prepared as described above was dissolved in specimens of the vehicle described in Example 1 and applied to the flank organs of groups of hamsters in the same manner as described in Example 1, a group of eight animals being used for each different composition.

[2] = test system: follicle enzyme; assay: Inhibition of follicle enzyme activity after topical treatment over three weeks; type: in vivo, Golden Syrian hamsters; settings: 6% solution, three week period
[3] = test system: hair follicle gamma-glutamyl transpeptidase; assay: Inhibition of hair follicle gamma-glutamyl transpeptidase activity; type: biochemical
[4] = test system: gamma-glutamyl transpeptidase; settings: Japanese Patent No. 53-127,432; Minato, Archives Biochem. Biophy., Vol. 192, 235-240 (1979); cited from earlier work

N[C@H](C(=O)O)[C@@H]1CC(Cl)=NO1 [Acivicin, (alpha S,5S)-amino-3-chloro-4,5-dihydro-isoxazole acetic acid]
Percent Inhibition (of hair mass vs vehicle-treated organ) ([1]; acivicin 1.0%, topical): 18.2% | Hamster Flank Organ Hair Mass, Treated (mean) ([1]; acivicin 1.0%, topical, contralateral vehicle organ 1.04 mg): 0.85 mg | Percent Inhibition (of hair mass vs vehicle-treated organ) ([1]; acivicin 2.0%, topical): 57.9% | Hamster Flank Organ Hair Mass, Treated (mean) ([1]; acivicin 2.0%, topical, contralateral vehicle organ 1.33 mg): 0.56 mg | Percent Inhibition (of hair mass vs vehicle-treated organ) ([1]; acivicin 6.0%, topical): 81.0% | Hamster Flank Organ Hair Mass, Treated (mean) ([1]; acivicin 6.0%, topical, contralateral vehicle organ 0.79 mg): 0.15 mg | character of hair on the treated organ vs untreated organ ([1]; topical acivicin): more vellus in nature | inhibition of follicle enzyme activity [2]: about 87%

N[C@@H](CCC(=O)NNc1ccccc1C(=O)O)C(=O)O [Anthglutin, 1-gamma-L-glutamyl-2 (2-carboxyphenyl)-hydrazine]
Percent Inhibition (of hair mass vs vehicle-treated organ) ([1]; anthglutin 0.5%, topical): 10.7% | Hamster Flank Organ Hair Mass, Treated (mean) ([1]; anthglutin 0.5%, topical, contralateral vehicle organ 2.03 mg): 1.81 mg | Percent Inhibition (of hair mass vs vehicle-treated organ) ([1]; anthglutin 1.0%, topical): 16.7% | Hamster Flank Organ Hair Mass, Treated (mean) ([1]; anthglutin 1.0%, topical, contralateral vehicle organ 1.92 mg): 1.60 mg | Percent Inhibition (of hair mass vs vehicle-treated organ) ([1]; anthglutin 2.0%, topical): 38.6% | Hamster Flank Organ Hair Mass, Treated (mean) ([1]; anthglutin 2.0%, topical, contralateral vehicle organ 2.57 mg): 1.58 mg | Percent Inhibition (of hair mass vs vehicle-treated organ) ([1]; anthglutin 6.0%, topical): 67.2% | Hamster Flank Organ Hair Mass, Treated (mean) ([1]; anthglutin 6.0%, topical, contralateral vehicle organ 2.26 mg): 0.74 mg | inhibition of the activity / inhibitory affinity for hair follicle gamma-glutamyl transpeptidase [3]: strong inhibitory affinity | inhibition of gamma-glutamyl transpeptidase [4]: specific inhibitor of gamma-glutamyl transpeptidase

O=C1OC(c2ccc(O)c(S(=O)(=O)O)c2)(c2ccc(O)c(S(=O)(=O)O)c2)c2c(Br)c(Br)c(Br)c(Br)c21 [bromsulphalein disodium, 5,5'-(4,5,6,7-tetrabromo-3-oxo-1(3H)-isobenzofuranylidene) bis[2-hydroxybenzenesulfonic acid]]
inhibition of hair mass ([1]; 5% by weight bromsulphalein disodium, topical): 32%

Source: patent US5096911A, “Alteration of rate and character of hair growth” (priority 1990, dated 1992)
